Results: BindingDB's records for doi:10.1021/jm010576e (Chiba University, 2002)

experiment: Binding affinity using guinea pig brain membrane preparations, towards Opioid receptor delta 1 using [3H]DPDPE as radioligand

Row | Compound | Ki
1 | CC[C@@H]1CN2CCc3c([nH]c4cccc(O)c34)[C@@H]2C[C@@H]1/C(=C\OC)C(=O)OC | 30.9 µM
2 | CC[C@@H]1CN2CC[C@@]3(O)C(=Nc4cccc(OC)c43)[C@@H]2C[C@@H]1/C(=C\OC)C(=O)OC | 0.155 µM
3 | CC[C@@H]1CN2CCc3c([nH]c4cccc(OC)c34)[C@@H]2C[C@@H]1/C(=C\OC)C(=O)OC [CHEBI:6956] | 0.06 µM
4 | CC[C@@H]1CN2CCc3c([nH]c4ccccc34)[C@@H]2C[C@@H]1/C(=C\OC)C(=O)OC [CHEBI:70073] | 2.88 µM
